# What was measured:
# [1] = test system: human sebocytes (Hs 917.T, ATCC line No. CRL-7669); test: Sebocyte viability (MTT exclusion test); type: cell-based; conditions: chrysin concentrations of 10^−3% and 5×10^−3%; compared with conventional culture medium
# Procedure: A line of human sebocytes (Hs 917.T, ATCC line No. CRL-7669) was cultured in Dulbecco's modified Eagle's medium with 4.5 g/l of D-glucose and 10% of fetal calf serum. These adherent cells have a polygonal morphology and large nuclei. Firstly, we verified the viability (MTT exclusion test) of the sebocytes in the presence of chrysin at various concentrations, in comparison with their conventional culture medium.
# [2] = test system: human sebocytes (Hs 917.T, ATCC line No. CRL-7669); test: Sebocyte proliferation, M.T.T. colorimetric test; type: cell-based; conditions: 72 hours of culture, versus reference medium
# Procedure: A line of human sebocytes (Hs 917.T, ATCC line No. CRL-7669) was cultured in Dulbecco's modified Eagle's medium with 4.5 g/l of D-glucose and 10% of fetal calf serum. These adherent cells have a polygonal morphology and large nuclei.
# Proliferation was evaluated by means of a validated colorimetric test, the M.T.T. test (dimethyl thiazolyl diphenyl tetrazolium) (according to Mosmann, J. Immunol. Meth. 1983 65: 55-63). This compound is metabolized by the mitochondria, to give blue formazan crystals, the amount of which depends directly on the activity of the mitochondrial succinate dehydrogenase enzyme and on the number of living cells.
# As a result of this, the proliferation is measured by colorimetery (570 nm).
# The proliferation was therefore evaluated according to the following conditions: • sebocytes in reference medium; • sebocytes cultured in the presence of the reference medium supplemented with chrysin at the 2 concentrations of 10^−3% and 5×10^−3%.
# For each condition performed in sextuplet, the proliferation was analyzed after 72 hours of culture.
smiles,measurement,setting,value
"O=c1cc(-c2ccccc2)oc2cc(O)cc(O)c12 [chrysin, 5,7-dihydroxyflavone]",cytotoxicity on sebocytes (viability),[1],did not induce any cytotoxicity
same,difference in proliferation of human sebocytes in culture,[2]; chrysin concentration 5×10^−3%,−18.4%
same,difference in proliferation of human sebocytes in culture,[2]; chrysin concentration 10^−3%,−10.5%

# Reference: US8394395B2, “Use of a cosmetic composition for the care of fatty skin” (Laboratories Clarins, priority 2006, dated 2013)
